Results published in patent US10479795B2 (Incyte Corporation, priority 2016, dated 2019).
Counter-ions that a name gives are not always drawn.

Assays:
[1] = target: PI3Kγ (p110γ) Recombinant Human Protein (Homo sapiens (Human), UniProt P48736); test: PI3K-γ Scintillation Proximity Assay; assay type: biochemical; conditions: read-out: PI3Kγ IC50
In short: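 Recombinant human p110γ assayed at room temperature in 20 mM MOPS pH 6.7, 10 mM MgCl2, 5 mM DTT, 0.03% CHAPS, 2% DMSO, with 20 μM PIP2 and 2 μM ATP plus [γ-33P]ATP. Product captured on WGA SPA beads overnight and counted; IC50 fitted from % of solvent-control activity versus log inhibitor concentration.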

[2] = target: PI3Kδ (p110δ/p85α) Recombinant Human Protein (Homo sapiens (Human), UniProt O00329); test: PI3Kδ Scintillation Proximity Assay; assay type: biochemical
Chain of PI3Kδ (p110δ/p85α) Recombinant Human Protein (O00329 whole entry): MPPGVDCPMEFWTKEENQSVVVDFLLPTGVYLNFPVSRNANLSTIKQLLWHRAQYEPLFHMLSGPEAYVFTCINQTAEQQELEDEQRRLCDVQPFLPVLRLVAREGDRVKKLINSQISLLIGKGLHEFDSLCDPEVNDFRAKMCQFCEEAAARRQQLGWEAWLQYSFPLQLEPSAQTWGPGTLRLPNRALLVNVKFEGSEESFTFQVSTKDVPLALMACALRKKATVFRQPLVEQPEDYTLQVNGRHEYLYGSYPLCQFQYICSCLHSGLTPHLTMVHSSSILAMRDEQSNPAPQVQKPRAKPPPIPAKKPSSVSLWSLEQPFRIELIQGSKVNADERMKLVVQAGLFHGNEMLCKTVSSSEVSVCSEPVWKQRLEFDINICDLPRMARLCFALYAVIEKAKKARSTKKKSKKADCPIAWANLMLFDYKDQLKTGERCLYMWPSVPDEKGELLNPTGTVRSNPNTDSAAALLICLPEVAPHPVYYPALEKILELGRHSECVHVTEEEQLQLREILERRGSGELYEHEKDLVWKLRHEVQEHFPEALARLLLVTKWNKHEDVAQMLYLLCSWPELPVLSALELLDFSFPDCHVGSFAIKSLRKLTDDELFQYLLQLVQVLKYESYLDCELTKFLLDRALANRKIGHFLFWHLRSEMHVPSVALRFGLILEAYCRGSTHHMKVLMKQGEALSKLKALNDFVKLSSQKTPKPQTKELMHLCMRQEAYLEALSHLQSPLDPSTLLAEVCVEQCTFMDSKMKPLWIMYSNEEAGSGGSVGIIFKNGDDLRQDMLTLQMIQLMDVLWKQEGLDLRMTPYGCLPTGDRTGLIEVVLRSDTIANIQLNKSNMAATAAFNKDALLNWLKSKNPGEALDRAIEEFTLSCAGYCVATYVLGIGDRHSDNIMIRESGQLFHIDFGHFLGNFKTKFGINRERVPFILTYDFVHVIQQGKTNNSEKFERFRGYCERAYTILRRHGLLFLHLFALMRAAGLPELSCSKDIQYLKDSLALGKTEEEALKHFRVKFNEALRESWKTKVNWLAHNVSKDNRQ
Chain of PI3Kδ (p110δ/p85α) Recombinant Human Protein (P27986 whole entry partner): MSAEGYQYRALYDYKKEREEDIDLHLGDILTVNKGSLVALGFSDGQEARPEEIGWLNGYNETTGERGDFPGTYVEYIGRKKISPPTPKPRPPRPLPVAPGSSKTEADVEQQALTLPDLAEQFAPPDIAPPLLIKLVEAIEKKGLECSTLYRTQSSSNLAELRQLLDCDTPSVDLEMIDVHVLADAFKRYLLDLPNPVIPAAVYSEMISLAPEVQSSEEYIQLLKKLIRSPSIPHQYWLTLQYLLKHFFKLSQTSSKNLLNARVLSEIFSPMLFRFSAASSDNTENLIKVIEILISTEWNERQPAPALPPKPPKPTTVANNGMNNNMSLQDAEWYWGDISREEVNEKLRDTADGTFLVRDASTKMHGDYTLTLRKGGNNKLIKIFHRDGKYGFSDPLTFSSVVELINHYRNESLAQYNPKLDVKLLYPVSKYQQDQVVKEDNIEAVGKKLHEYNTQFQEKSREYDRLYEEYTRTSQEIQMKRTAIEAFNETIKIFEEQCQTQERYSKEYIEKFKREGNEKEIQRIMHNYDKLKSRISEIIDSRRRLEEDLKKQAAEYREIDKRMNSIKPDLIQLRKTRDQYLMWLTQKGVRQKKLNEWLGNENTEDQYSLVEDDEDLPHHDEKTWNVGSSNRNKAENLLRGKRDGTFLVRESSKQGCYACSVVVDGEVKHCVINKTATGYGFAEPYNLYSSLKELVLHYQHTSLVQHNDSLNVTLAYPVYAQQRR
In short: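 Kinase reaction run at room temperature in 20 mM MOPS pH 6.7, 10 mM MgCl2, 5 mM DTT, 0.03% CHAPS with 20 μM PIP2, 2 μM ATP plus [γ-33P]ATP, 3.4 nM enzyme, 2% DMSO; 120 min. Quenched with WGA SPA beads/EDTA, counted by scintillation; IC50 from % solvent-control activity vs log concentration.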

Chain of PI3Kγ (p110γ) Recombinant Human Protein (P48736 whole entry): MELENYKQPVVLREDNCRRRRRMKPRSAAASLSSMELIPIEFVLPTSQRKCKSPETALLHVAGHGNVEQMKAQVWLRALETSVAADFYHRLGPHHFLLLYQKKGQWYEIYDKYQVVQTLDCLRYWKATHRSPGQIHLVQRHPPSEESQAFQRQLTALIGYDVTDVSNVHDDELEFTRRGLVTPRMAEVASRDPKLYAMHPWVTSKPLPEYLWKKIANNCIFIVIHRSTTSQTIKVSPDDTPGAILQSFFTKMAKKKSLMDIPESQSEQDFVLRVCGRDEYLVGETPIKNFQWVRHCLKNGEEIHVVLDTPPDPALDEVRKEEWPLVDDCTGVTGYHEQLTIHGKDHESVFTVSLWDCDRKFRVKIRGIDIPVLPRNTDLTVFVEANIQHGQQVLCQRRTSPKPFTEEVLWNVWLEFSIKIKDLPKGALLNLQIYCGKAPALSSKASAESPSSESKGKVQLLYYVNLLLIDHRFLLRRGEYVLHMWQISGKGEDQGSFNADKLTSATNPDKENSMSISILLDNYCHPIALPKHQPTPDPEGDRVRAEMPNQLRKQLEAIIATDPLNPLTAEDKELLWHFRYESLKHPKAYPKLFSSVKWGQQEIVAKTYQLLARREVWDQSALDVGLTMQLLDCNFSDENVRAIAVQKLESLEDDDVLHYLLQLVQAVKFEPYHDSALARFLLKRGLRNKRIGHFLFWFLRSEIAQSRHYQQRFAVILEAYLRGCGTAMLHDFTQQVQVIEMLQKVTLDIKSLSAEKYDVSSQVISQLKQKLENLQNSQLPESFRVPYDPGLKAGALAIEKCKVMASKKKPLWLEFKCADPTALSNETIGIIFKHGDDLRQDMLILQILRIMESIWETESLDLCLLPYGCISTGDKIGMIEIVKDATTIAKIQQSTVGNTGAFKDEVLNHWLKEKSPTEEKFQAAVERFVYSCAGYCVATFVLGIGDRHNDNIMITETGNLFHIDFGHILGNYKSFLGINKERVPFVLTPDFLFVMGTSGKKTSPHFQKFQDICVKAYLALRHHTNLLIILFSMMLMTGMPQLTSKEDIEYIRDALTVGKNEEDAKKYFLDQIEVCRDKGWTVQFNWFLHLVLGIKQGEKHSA

SMILES	IC50 [1]	IC50 [2]
N#Cc1ccc(S(=O)(=O)NC23CCC(CO)(C2)C3)cc1-c1cnc2c(N)nc(C(F)(F)F)cn12 [Example 401, 3-(8-Amino-6-(trifluoromethyl)imidazo[1,2-a]pyrazin-3-yl)-4-cyano-N-(4-(hydroxymethyl)bicyclo[2.1.1]hexan-1-yl)benzenesulfonamide trifluoroacetate salt]	< 100 nM	> 2000 nM
CC(C)(O)CNS(=O)(=O)c1ccc(C(F)(F)F)c(-c2cnc3c(N)nc(C(F)(F)F)cn23)c1 [Example 407, 3-(8-amino-6-(trifluoromethyl)imidazo[1,2-a]pyrazin-3-yl)-N-(2-hydroxy-2-methylpropyl)-4-(trifluoromethyl)benzenesulfonamide]	500 to 2000 nM	> 2000 nM
CCN(CC)CCCCNC(=O)c1cn2c(-c3cc(S(C)(=O)=O)ccc3C)cnc2c(N)n1 [Example 452, 8-Amino-N-(4-(diethylamino)butyl)-3-(2-methyl-5-(methylsulfonyl)phenyl)imidazo[1,2-a]pyrazine-6-carboxamide trifluoroacetate salt]	> 2000 nM	100 to 500 nM
Cc1ccc(S(C)(=O)=O)cc1-c1cnc2c(N)nc(C(=O)NCCc3cnn(C)c3)cn12 [Example 453, 8-amino-N-(2-(1-methyl-1H-pyrazol-4-yl)ethyl)-3-(2-methyl-5-(methylsulfonyl)phenyl)imidazo[1,2-a]pyrazine-6-carboxamide trifluoroacetate salt]	100 to 500 nM	100 to 500 nM
Cc1ccc(S(C)(=O)=O)cc1-c1cnc2c(N)nc(C(=O)Nc3cc(-c4ccco4)[nH]n3)cn12 [Example 454, 8-amino-N-(5-(furan-2-yl)-1H-pyrazol-3-yl)-3-(2-methyl-5-(methylsulfonyl)phenyl)imidazo[1,2-a]pyrazine-6-carboxamide trifluoroacetate salt]	100 to 500 nM	500 to 2000 nM
Cc1ccc(S(C)(=O)=O)cc1-c1cnc2c(N)nc(C(=O)Nc3ccc(N4CCN(C)CC4)cn3)cn12 [Example 455, 8-amino-3-(2-methyl-5-(methylsulfonyl)phenyl)-N-(5-(4-methylpiperazin-1-yl)pyridin-2-yl)imidazo[1,2-a]pyrazine-6-carboxamide trifluoroacetate salt]	500 to 2000 nM	500 to 2000 nM
Cc1ccc(S(C)(=O)=O)cc1-c1cnc2c(N)nc(C(=O)NCCCn3cccn3)cn12 [Example 457, N-(3-(1H-pyrazol-1-yl)propyl)-8-amino-3-(2-methyl-5-(methylsulfonyl)phenyl)imidazo[1,2-a]pyrazine-6-carboxamide trifluoroacetate salt]	100 to 500 nM	100 to 500 nM
COCCN1CCCC(NC(=O)c2cn3c(-c4cc(S(C)(=O)=O)ccc4C)cnc3c(N)n2)C1 (stereo not shown) [Example 458, 8-Amino-N-(1-(2-methoxyethyl)piperidin-3-yl)-3-(2-methyl-5-(methylsulfonyl)phenyl)imidazo[1,2-a]pyrazine-6-carboxamide trifluoroacetate salt]	500 to 2000 nM	> 2000 nM
Cc1ccc(S(C)(=O)=O)cc1-c1cnc2c(N)nc(C(=O)NC3CCCN(CC#N)C3)cn12 (stereo not shown) [Example 459, 8-Amino-N-(1-(cyanomethyl)piperidin-3-yl)-3-(2-methyl-5-(methylsulfonyl)phenyl)imidazo[1,2-a]pyrazine-6-carboxamide trifluoroacetate salt]	100 to 500 nM	> 2000 nM
COC(=O)N1CCCC(NC(=O)c2cn3c(-c4cc(S(C)(=O)=O)ccc4C)cnc3c(N)n2)C1 (stereo not shown) [Example 461, Methyl 3-(8-amino-3-(2-methyl-5-(methylsulfonyl)phenyl)imidazo[1,2-a]pyrazine-6-carboxamido)piperidine-1-carboxylate trifluoroacetate salt]	100 to 500 nM	500 to 2000 nM
Cc1ccc(S(C)(=O)=O)cc1-c1cnc2c(N)nc(C(=O)NC3CCCN(S(C)(=O)=O)C3)cn12 (stereo not shown) [Example 462, 8-Amino-3-(2-methyl-5-(methylsulfonyl)phenyl)-N-(1-(methylsulfonyl)piperidin-3-yl)imidazo[1,2-a]pyrazine-6-carboxamide trifluoroacetate salt]	< 100 nM	500 to 2000 nM
Cc1c(F)cc(S(=O)(=O)NCC(C)(C)O)cc1-c1cnc2c(N)nc(CO)nn12 [Example 470, 3-(4-Amino-2-(hydroxymethyl)imidazo[2,1-f][1,2,4]triazin-7-yl)-5-fluoro-N-(2-hydroxy-2-methylpropyl)-4-methylbenzenesulfonamide]	< 100 nM	500 to 2000 nM
Cc1cnccc1-c1cn2c(-c3cc(S(C)(=O)=O)ccc3C)cnc2c(N)n1 [Example 473, 3-(2-Methyl-5-(methylsulfonyl)phenyl)-6-(3-methylpyridin-4-yl)imidazo[1,2-a]pyrazin-8-amine trifluoroacetate]	< 100 nM	500 to 2000 nM
COc1cccc(F)c1-c1cn2c(-c3cc(S(C)(=O)=O)ccc3C)cnc2c(N)n1 [Example 478, 6-(2-Fluoro-6-methoxyphenyl)-3-(2-methyl-5-(methylsulfonyl)phenyl)imidazo[1,2-a]pyrazin-8-amine trifluoroacetate]	100 to 500 nM	500 to 2000 nM
Cc1ccc(S(C)(=O)=O)cc1-c1cnc2c(N)nc(-c3ccnn3C)cn12 [Example 479, 6-(1-Methyl-1H-pyrazol-5-yl)-3-(2-methyl-5-(methylsulfonyl)phenyl)imidazo[1,2-a]pyrazin-8-amine trifluoroacetate]	< 100 nM	100 to 500 nM
Cc1ccc(S(C)(=O)=O)cc1-c1cnc2c(N)nc(-c3ccc(C(=O)N(C)C)cc3F)cn12 [Example 480, 4-(8-Amino-3-(2-methyl-5-(methylsulfonyl)phenyl)imidazo[1,2-a]pyrazin-6-yl)-3-fluoro-N,N-dimethylbenzamide]	< 100 nM	100 to 500 nM
Cc1ccc(S(C)(=O)=O)cc1-c1cnc2c(N)nc(-c3ccc(CN4CCCC4)cc3F)cn12 [Example 487, 6-(2-Fluoro-4-(pyrrolidin-1-ylmethyl)phenyl)-3-(2-methyl-5-(methylsulfonyl)phenyl)imidazo[1,2-a]pyrazin-8-amine]	< 100 nM	100 to 500 nM
Cc1ccc(S(=O)(=O)C[C@H]2CC[C@@H](O)CC2)cc1-c1cnc2c(N)ncnn12 [Example 498, cis-4-(((3-(4-Aminoimidazo[2,1-f][1,2,4]triazin-7-yl)-4-methylphenyl)sulfonyl)methyl)cyclohexan-1-ol]	< 100 nM	500 to 2000 nM
Cc1ccc(S(=O)(=O)CC2CC2)cc1-c1cnc2c(N)ncnn12 [Example 499, 7-(5-((Cyclopropylmethyl)sulfonyl)-2-methylphenyl)imidazo[2,1-f][1,2,4]triazin-4-amine]	100 to 500 nM	500 to 2000 nM
COC[C@H]1CCCN1C(=O)C1CCCN(S(=O)(=O)c2ccc(C)c(-c3cnc4c(N)nc(C(F)(F)F)cn34)c2)C1 (stereo partly drawn) [Example 511, (1-((3-(8-Amino-6-(trifluoromethyl)imidazo[1,2-a]pyrazin-3-yl)-4-methylphenyl)sulfonyl)piperidin-3-yl)((R)-2-(methoxymethyl)pyrrolidin-1-yl)methanone]	500 to 2000 nM	> 2000 nM
